≈ marks a conversion by molar mass, not a printed value.
Key:
D. immitis Slo-1 = D. immitis Slo-1 (Dirofilaria immitis, UniProt I0DFK5); assay: In Vitro Assay 2: D. immitis Slo-1, membrane potential measurement in recombinant CHO cell line; format: cell-based
[1] = system: Adult Nippostrongylus brasiliensis; assay: In Vitro Assay 5: Nippostrongylus brasiliensis (NIPOBR), acetylcholine esterase readout; format: cell-based; conditions: acetylcholine esterase activity in medium vs negative control, adult worms, read-out: EC50
Procedure: In Vitro Assay 5: Nippostrongylus Brasiliensis (NIPOBR)
Adult Nippostrongylus brasiliensis were washed with saline buffer containing 100 U/ml penicillin, 0.1 mg/ml streptomycin and 2.5 μg/ml amphotericin B. Test compounds were dissolved in DMSO and worms were incubated in medium in a final concentration of 10 μg/ml (10 ppm), 1 μg/ml (1 ppm) and 0.1 μg/ml (0.1 ppm) respectively. An aliquot of the medium was used to determine the acetylcholine esterase activity in comparison to a negative control. The principle of measuring acetylcholine esterase as readout for anthelmintic activity was described in Rapson et al (1986) and Rapson et al (1987).
Based on the evaluation of a wide concentration range, concentration-response curves as well as EC50-values were calculated.

[2] = system: Dirofilaria immitis third-stage larvae; assay: In Vitro Assay 4: Dirofilaria immitis (DIROIM L4) larval motility; format: cell-based; conditions: 72 h
C. elegans Slo-1a = C. elegans Slo-1a (Caenorhabditis elegans, UniProt Q95V25)
Chain of C. elegans Slo-1a (Q95V25 whole entry): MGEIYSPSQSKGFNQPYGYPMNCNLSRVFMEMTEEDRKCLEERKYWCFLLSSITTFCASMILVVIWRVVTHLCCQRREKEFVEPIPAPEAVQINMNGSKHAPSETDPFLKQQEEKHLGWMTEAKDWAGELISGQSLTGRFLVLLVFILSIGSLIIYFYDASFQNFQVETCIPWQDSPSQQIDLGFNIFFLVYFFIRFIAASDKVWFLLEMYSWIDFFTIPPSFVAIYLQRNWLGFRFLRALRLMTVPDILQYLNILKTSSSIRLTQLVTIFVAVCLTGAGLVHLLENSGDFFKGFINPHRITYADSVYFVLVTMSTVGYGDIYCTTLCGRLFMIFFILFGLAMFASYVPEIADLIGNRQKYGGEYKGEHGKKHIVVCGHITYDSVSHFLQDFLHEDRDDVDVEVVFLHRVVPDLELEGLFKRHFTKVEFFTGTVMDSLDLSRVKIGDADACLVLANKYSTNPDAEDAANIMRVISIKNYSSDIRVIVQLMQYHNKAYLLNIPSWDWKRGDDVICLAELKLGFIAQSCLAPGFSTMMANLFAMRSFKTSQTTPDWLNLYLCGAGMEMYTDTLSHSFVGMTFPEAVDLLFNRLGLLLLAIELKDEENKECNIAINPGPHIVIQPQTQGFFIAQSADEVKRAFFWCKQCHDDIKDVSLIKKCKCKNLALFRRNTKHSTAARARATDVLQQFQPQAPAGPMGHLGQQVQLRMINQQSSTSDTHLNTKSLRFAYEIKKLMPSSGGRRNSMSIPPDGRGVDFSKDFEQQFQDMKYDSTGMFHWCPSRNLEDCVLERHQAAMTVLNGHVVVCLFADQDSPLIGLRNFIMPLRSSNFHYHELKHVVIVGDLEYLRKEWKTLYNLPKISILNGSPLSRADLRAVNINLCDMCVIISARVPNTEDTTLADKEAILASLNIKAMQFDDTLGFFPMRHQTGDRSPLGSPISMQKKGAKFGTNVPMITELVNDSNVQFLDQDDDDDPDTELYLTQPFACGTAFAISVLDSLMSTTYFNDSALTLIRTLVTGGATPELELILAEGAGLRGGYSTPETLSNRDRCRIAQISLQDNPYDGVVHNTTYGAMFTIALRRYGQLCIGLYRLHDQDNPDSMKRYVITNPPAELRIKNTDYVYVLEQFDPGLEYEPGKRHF
Procedure: For transfection with plasmid DNA to express C. elegans Slo-1a (accession number AAL28102) CHO cells were passaged to 40% confluence before adding the transfection solution to the cell culture. The transfection solution included 300 μL OptiMEM (Life Technologies, Nr.: 31985), 2 μL (=6 μg) of plasmid DNA containing the C. elegans Slo-1a gene and 9 μL FugeneHD (Promega, Nr.: E2311), and was added to the cells prior to incubation for 48 hours at 37° C., 5% CO2. The transfection medium was exchanged for the selection medium which contains additional G418 (2 mg/ml, Invitrogen, Nr.: 10131) and the cells were seeded into 384 well plates (300 cells/well). After a few weeks, the remaining surviving cells were tested with a voltage sensitive dye (Membrane Potential Assay Kit, Molecular Devices Nr.: R8034) for K+ channel expression. Positive cell clones were purified by the limited dilution technique. For this the clone with the highest and most robust signal in the voltage sensitive dye assay was further subcloned (incubated) in 384 well plates (0.7 cells/well) to obtain clonal purity. This generated a final stable CHO cell line expressing the C. elegans Slo-1a.
Cell culture conditions Cells were cultured at 37° C. and 5% CO2 in MEMalpha with Gutamax I (Invitrogen, Nr.: 32571), supplemented with 10% (v/v) heat inactivated fetal bovine serum (Invitrogen, Nr.: 10500), G418 (1 mg/ml, Invitrogen, Nr.: 10131). Cells were detached using Accutase (Sigma, Nr.: A6964).
Membrane Potential Measurements
Laboratory compound testing was performed on 384-well microtiter plates (MTPs, Greiner, Nr.: 781092). 8000 cells/well were plated onto 384-well MTPs and cultured for 20 to 24 hours at 37° C. and 5% CO2. After removal of the cell culture medium, the cells were washed once with tyrode (150 mM NaCl, 0.3 mM KCl, 2 mM CaCl2, 1 m M MgCl2, 0.8 mM NaH2PO4, 5 mM Glucose, 28 mM Hepes, pH 7.4) and then loaded with the voltage sensitive dye of the Membrane Potential Assay Kit diluted in tyrode for 1 h at room temperature. After starting the measurement of fluorescence using a FLIPR Tetra (Molecular Devices, Exc. 510-545 nm, Emm. 565-625 nm), test compounds were added followed by the addition of KCl tyrode (final assay concentration: 70 mM KCl, 2 mM CaCl2, 1 mM MgCl2, 0.8 mM NaH2PO4, 5 mM Glucose, 28 mM Hepes, pH 7.4, including the voltage sensitive dye). The measurement was completed after 7 minutes.
EC50 values were calculated using a four-parameter plotting by the Scilligence ELN/Regmol Software Tool, Bioassay.

[3] = system: Dirofilaria immitis microfilariae; assay: In Vitro Assay 3: Dirofilaria immitis microfilariae (DIROIM L1) motility; format: cell-based; conditions: 72 h

Chain of D. immitis Slo-1 (I0DFK5 1-1119): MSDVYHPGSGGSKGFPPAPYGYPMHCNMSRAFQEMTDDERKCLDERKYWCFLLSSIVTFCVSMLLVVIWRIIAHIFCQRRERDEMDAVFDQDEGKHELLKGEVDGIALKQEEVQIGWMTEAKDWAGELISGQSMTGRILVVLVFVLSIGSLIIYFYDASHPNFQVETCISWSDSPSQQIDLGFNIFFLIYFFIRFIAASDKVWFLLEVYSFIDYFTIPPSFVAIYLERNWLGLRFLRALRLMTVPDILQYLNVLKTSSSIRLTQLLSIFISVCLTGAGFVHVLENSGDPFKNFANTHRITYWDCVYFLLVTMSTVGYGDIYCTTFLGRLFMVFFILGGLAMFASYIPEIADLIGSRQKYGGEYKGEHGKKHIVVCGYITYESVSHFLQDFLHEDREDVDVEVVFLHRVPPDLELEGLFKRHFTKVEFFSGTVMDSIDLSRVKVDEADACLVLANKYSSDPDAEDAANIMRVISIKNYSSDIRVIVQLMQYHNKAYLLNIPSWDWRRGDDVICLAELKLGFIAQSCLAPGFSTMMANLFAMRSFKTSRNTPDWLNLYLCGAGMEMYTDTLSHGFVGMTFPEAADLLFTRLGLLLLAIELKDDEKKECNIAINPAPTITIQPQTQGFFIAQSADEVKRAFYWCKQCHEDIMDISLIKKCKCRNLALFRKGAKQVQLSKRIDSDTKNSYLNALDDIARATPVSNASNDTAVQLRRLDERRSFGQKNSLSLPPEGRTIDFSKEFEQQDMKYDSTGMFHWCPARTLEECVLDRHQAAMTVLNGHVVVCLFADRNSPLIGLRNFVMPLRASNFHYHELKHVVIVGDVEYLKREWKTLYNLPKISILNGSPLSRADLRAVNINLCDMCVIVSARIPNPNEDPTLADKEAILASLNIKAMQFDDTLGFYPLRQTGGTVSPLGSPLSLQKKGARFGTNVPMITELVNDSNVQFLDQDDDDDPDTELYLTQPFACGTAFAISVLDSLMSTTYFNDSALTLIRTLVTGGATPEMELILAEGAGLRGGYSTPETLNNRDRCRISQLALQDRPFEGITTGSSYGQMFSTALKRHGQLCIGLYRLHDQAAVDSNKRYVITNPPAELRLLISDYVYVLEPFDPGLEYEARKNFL

## CC(C)c1c(C(=O)NN2CCOc3ccccc32)ccc2c1nnn2-c1cc(F)cc(F)c1F [Example 16.1, N-(2,3-Dihydro-4H-benzo[b][1,4]oxazin-4-yl)-4-isopropyl-1-(2,3,5-trifluorophenyl)-1H-benzo[d][1,2,3]triazole-5-carboxamide]
D. immitis Slo-1
  EC50: > 1 µM
[1]
  EC50: > 1 µg/mL
[2]
  EC50: > 1 µg/mL
C. elegans Slo-1a
  EC50: > 1 µM
[3]
  EC50: > 1 µg/mL

## Cc1nn2c(C(C)C)c(C(=O)NN3CCOc4ccccc43)sc2c1-c1cc(F)cc(F)c1F [Example 4.1, N-(2,3-Dihydro-1,4-benzoxazin-4-yl)-3-isopropyl-6-methyl-7-(2,3,5-trifluorophenyl)-pyrazolo[5,1-b]thiazole-2-carboxamide]
D. immitis Slo-1
  EC50: > 1 µM
[1]
  EC50: > 1 µg/mL
[2]
  EC50: < 0.1 µg/mL
C. elegans Slo-1a
  EC50: < 0.1 µM
[3]
  EC50: 0.1 to 1 µg/mL (≈ 0.206 to 2.06 µM)

## CC(C)n1c(C(=O)NN2CCOc3ccccc32)nc2c(-c3cc(F)cc(F)c3F)cccc21 [Example 13.1, N-(2,3-Dihydro-4H-benzo[b][1,4]oxazin-4-yl)-1-isopropyl-4-(2,3,5-trifluorophenyl)-1H-benzo[d]imidazole-2-carboxamide]
D. immitis Slo-1
  EC50: > 1 µM
[1]
  EC50: > 1 µg/mL
[2]
  EC50: 0.1 to 1 µg/mL (≈ 0.214 to 2.14 µM)
C. elegans Slo-1a
  EC50: 0.1 to 1 µM
[3]
  EC50: 0.1 to 1 µg/mL (≈ 0.214 to 2.14 µM)

## Cc1nn2c(C(C)C)c(C(=O)NN3CCOc4ccccc43)cnc2c1-c1c(F)cccc1F [Example 3.1, 3-(2,6-Difluorophenyl)-N-(2,3-dihydro-1,4-benzoxazin-4-yl)-7-isopropyl-2-methyl-pyrazolo[1,5-a]pyrimidine-6-carboxamide]
D. immitis Slo-1
  EC50: 0.1 to 1 µM
[1]
  EC50: > 1 µg/mL
[2]
  EC50: < 0.1 µg/mL
C. elegans Slo-1a
  EC50: < 0.1 µM
[3]
  EC50: < 0.1 µg/mL

## O=C(NN1CCOc2ccccc21)c1sc2c(-c3cc(F)cc(F)c3F)c(F)cnc2c1N1CCOCC1 [Example 6.4, N-(2,3-Dihydro-4H-benzo[b][1,4]oxazin-4-yl)-6-fluoro-3-morpholino-7-(2,3,5-trifluorophenyl)thieno[3,2-b]pyridine-2-carboxamide]
D. immitis Slo-1
  EC50: 0.1 to 1 µM
[1]
  EC50: 0.1 to 1 µg/mL (≈ 0.184 to 1.84 µM)
[2]
  EC50: < 0.1 µg/mL
C. elegans Slo-1a
  EC50: < 0.1 µM
[3]
  EC50: < 0.1 µg/mL

## CC(C)c1c(C(=O)NN2CCOc3ccccc32)nc2c(-c3cc(F)cc(F)c3F)cccn12 [Example 7.1, N-(2,3-dihydro-4H-benzo[b][1,4]oxazin-4-yl)-3-isopropyl-8-(2,3,5-trifluoro-phenyl)imidazo[1,2-a]pyridine-2-carboxamide]
D. immitis Slo-1
  EC50: > 1 µM
[1]
  EC50: > 1 µg/mL
[2]
  EC50: 0.1 to 1 µg/mL (≈ 0.214 to 2.14 µM)
C. elegans Slo-1a
  EC50: > 1 µM
[3]
  EC50: 0.1 to 1 µg/mL (≈ 0.214 to 2.14 µM)

## CC(C)c1c(C(=O)NN2CCOc3ccccc32)sc2c(-c3cc(F)cc(F)c3F)cccc12 [Example 1.1, N-(2,3-dihydro-1,4-benzoxazin-4-yl)-3-isopropyl-7-(2,3,5-trifluorophenyl)benzo-thiophene-2-carboxamide]
D. immitis Slo-1
  EC50: > 1 µM
[1]
  EC50: 0.1 to 1 µg/mL (≈ 0.207 to 2.07 µM)
[2]
  EC50: < 0.1 µg/mL
C. elegans Slo-1a
  EC50: < 0.1 µM
[3]
  EC50: < 0.1 µg/mL

## O=C(NN1CCOc2ccccc21)c1sc2c(-c3cc(F)cc(F)c3F)nccc2c1N1CCOCC1 [Example 2.1, N-(2,3-Dihydro-1,4-benzoxazin-4-yl)-3-morpholino-7-(2,3,5-trifluorophenyl)thieno-[2,3-c]pyridine-2-carboxamide]
D. immitis Slo-1
  EC50: 0.1 to 1 µM
[1]
  EC50: > 1 µg/mL
[2]
  EC50: 0.1 to 1 µg/mL (≈ 0.19 to 1.9 µM)
C. elegans Slo-1a
  EC50: 0.1 to 1 µM
[3]
  EC50: 0.1 to 1 µg/mL (≈ 0.19 to 1.9 µM)

## CC(C)c1c(C(=O)NN2CCOc3ccccc32)ccn2c(-c3c(F)ccc(F)c3F)nnc12 [Example 15.1, N-(2,3-Dihydro-1,4-benzoxazin-4-yl)-8-isopropyl-3-(2,3,6-trifluorophenyl)-[1,2,4] triazolo [4,3-a]pyridine-7-carboxamide]
D. immitis Slo-1
  EC50: > 1 µM
[1]
  EC50: > 1 µg/mL
[2]
  EC50: > 1 µg/mL
C. elegans Slo-1a
  EC50: > 1 µM
[3]
  EC50: 0.1 to 1 µg/mL (≈ 0.214 to 2.14 µM)

## CC(C)c1c(C(=O)NN2CCOc3ccccc32)[nH]c2c(-c3cc(F)cc(F)c3F)cccc12 [Example 17.1, N-(2,3-dihydro-1,4-benzoxazin-4-yl)-3-(1-methylethyl)-7-[2,3,5-tris(fluoranyl)-phenyl]-1H-indole-2-carboxamide]
D. immitis Slo-1
  EC50: > 1 µM
[1]
  EC50: > 1 µg/mL
[2]
  EC50: > 1 µg/mL
C. elegans Slo-1a
  EC50: > 1 µM
[3]
  EC50: < 0.1 µg/mL

## CC(C)n1c(C(=O)NN2CCOc3ccccc32)nc2c(-c3cc(F)cc(F)c3F)nccc21 [Example 12.1, N-(2,3-Dihydro-4H-benzo[b][1,4]oxazin-4-yl)-1-isopropyl-4-(2,3,5-trifluorophenyl)-1H-imidazo[4,5-c]pyridine-2-carboxamide]
D. immitis Slo-1
  EC50: > 1 µM
[1]
  EC50: > 1 µg/mL
[2]
  EC50: < 0.1 µg/mL
C. elegans Slo-1a
  EC50: > 1 µM
[3]
  EC50: 0.1 to 1 µg/mL (≈ 0.214 to 2.14 µM)

## Cc1nn2c(C(C)(C)O)c(C(=O)NN3CCOc4ccccc43)sc2c1-c1cc(F)cc(F)c1F [Example 4.3, N-(2,3-Dihydro-1,4-benzoxazin-4-yl)-3-(2-hydroxypropan-2-yl)-6-methyl-7-(2,3,5-trifluorophenyl)pyrazolo [3,2-b][1,3]thiazole-2-carboxamide]
D. immitis Slo-1
  EC50: 0.1 to 1 µM
[1]
  EC50: 0.1 to 1 µg/mL (≈ 0.199 to 1.99 µM)
[2]
  EC50: < 0.1 µg/mL
C. elegans Slo-1a
  EC50: < 0.1 µM
[3]
  EC50: < 0.1 µg/mL

## Cc1nn(-c2cc(F)cc(F)c2F)c2ncc(C(=O)NN3CCOc4ccccc43)c(C(C)C)c12 [Example 10.2, N-(2,3-Dihydro-4H-benzo[b][1,4]oxazin-4-yl)-4-isopropyl-3-methyl-1-(2,3,5-trifluorophenyl)-1H-pyrazolo[3,4-b]pyridine-5-carboxamide]
D. immitis Slo-1
  EC50: > 1 µM
[1]
  EC50: > 1 µg/mL
[2]
  EC50: > 1 µg/mL
C. elegans Slo-1a
  EC50: > 1 µM
[3]
  EC50: 0.1 to 1 µg/mL (≈ 0.208 to 2.08 µM)

## CC(C)c1c(C(=O)NN2CCOc3ccccc32)sc2c(-c3cc(F)cc(F)c3F)nccc12 [Example 2.2, N-(2,3-Dihydro-1,4-benzoxazin-4-yl)-3-isopropyl-7-(2,3,5-trifluorophenyl)-thieno[2,3-c]pyridine-2-carboxamide]
D. immitis Slo-1
  EC50: 0.1 to 1 µM
[1]
  EC50: 0.1 to 1 µg/mL (≈ 0.207 to 2.07 µM)
[2]
  EC50: < 0.1 µg/mL
C. elegans Slo-1a
  EC50: < 0.1 µM
[3]
  EC50: < 0.1 µg/mL
